Laboratory results published in article PMC6646438 (Natural Products and Bioprospecting, 2019).

Legend:
melatonin MT1 receptor = target: T1, melatonin MT1 receptor (Homo sapiens, UniProt P48039); assay: Fluo-8 calcium flux agonist assay in HEK293 cells stably expressing human MT1, single concentration […]; assay type: cell-based; conditions: read-out: % agonistic rate at 0.5 mM
T1 construct: gene MTNR1A

melatonin MT2 receptor = target: T2, melatonin MT2 receptor (Homo sapiens, UniProt P49286); assay: Fluo-8 calcium flux agonist assay in HEK293 cells stably expressing human MT2, dose-response; assay type: cell-based
T2 construct: gene MTNR1B
T2 sequence (P49286 1-362): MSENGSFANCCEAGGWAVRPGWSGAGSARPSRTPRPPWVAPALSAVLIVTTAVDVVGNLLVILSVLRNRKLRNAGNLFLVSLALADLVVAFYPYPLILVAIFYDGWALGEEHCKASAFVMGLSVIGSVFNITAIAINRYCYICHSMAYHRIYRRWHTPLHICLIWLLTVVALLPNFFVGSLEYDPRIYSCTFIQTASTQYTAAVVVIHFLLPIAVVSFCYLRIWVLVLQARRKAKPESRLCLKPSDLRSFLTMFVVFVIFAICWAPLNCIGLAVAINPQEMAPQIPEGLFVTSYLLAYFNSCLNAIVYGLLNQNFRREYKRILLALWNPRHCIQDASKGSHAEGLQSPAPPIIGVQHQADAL

T1 sequence (P48039 whole entry): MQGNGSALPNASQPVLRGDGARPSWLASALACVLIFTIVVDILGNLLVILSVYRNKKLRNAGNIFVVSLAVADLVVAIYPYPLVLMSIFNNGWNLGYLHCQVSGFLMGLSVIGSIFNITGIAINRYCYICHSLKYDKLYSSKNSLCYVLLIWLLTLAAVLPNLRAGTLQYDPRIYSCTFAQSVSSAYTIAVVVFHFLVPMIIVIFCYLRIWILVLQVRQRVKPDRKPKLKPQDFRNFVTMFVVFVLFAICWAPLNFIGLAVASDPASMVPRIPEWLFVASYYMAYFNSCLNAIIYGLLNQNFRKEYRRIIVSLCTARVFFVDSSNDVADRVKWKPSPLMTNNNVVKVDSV

Question: Which activation at 500 µM (melatonin MT1 receptor) does the source give for `Oc1ccc(Cc2ccc(O)c(Cc3cc(Cc4ccc(O)cc4)c(O)c(Cc4ccc(O)cc4)c3)c2)cc1` [compound 1, gastropolybenzylol G] here?
Answer: 55.9 ± 4.84%

Question: What about the EC50 (melatonin MT2 receptor) of the same molecule?
Answer: 76.2 µM
